Experiment [1] in a line: RI is the ratio of cytotoxicity against MCF-7/VP-16 cell line to that of MCF-7 cell line. The class given is functional, MCF7.
For a further experiment, the system named is MCF7. The experiment can be described thus: In vitro cytotoxicity against human breast carcinoma cell line (MCF-7). The class given is functional. Particulars: read-out: ID50 (the source's name).
The next experiment concerns MCF7-VP. The experiment can be described thus: In vitro cytotoxicity against multi drug resistant human breast carcinoma (MCF-7/VP-16) cell line. Particulars: read-out: ID50 (the source's name). The class given is functional.

RI and IC50 data for two compounds are collected here from ChEMBL document CHEMBL1130281, “Structure-based design of a new bisintercalating anthracycline antibiotic” (1997).

For the compound `COc1cccc2c1C(=O)c1c(O)c3c(c(O)c1C2=O)C[C@@](O)(C(C)=O)C[C@@H]3OC1CC(NCc2ccc(CNC3CC(O[C@H]4C[C@](O)(C(C)=O)Cc5c(O)c6c(c(O)c54)C(=O)c4c(OC)cccc4C6=O)OC(C)C3O)cc2)C(O)C(C)O1.Cl.Cl` (some centres undefined) [BISANTHRACYCLINE (WP631)], the RI in experiment [1] is reported as 0.5. The IC50 in the experiment on MCF7 was 4.8 µM; with MCF7-VP, 2.5 µM.

For the compound `COc1cccc2c1C(=O)c1c(O)c3c(c(O)c1C2=O)C[C@@](O)(C(=O)CO)C[C@@H]3O[C@H]1C[C@H](N)[C@H](O)[C@H](C)O1` [DOXORUBICIN], the IC50 in the experiment with MCF7-VP was found to be 14.2 µM.
